Reference: the supplement of paper PMC8671470
± gives the standard deviation of the averaged measurements.

Legend:
Conditions in all cases: 72 h
HL-60 [1] = experiment: cell viability (% survival relative to DMSO control); higher = less cytotoxic
Method in brief: (§1)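 For each screen, HL-60 cells in RPMI 1640 with 10% FBS carried either DMSO or 100 nM of one of three metabolic inhibitors while the full library was applied at five tenfold concentrations, 1–10,000 nM, in duplicate. Plates were 384-well and were kept 72 h at 37 °C, 5% CO2. Viability, measured by CellTiter-Glo, was normalised to wells with DMSO and with 10 μM proteasome inhibitor. Where area under the curve appears, it was fitted by four-parameter log-logistic models in drc and PharmacoGx.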

HL-60 [2] = experiment: area under dose-response curve (viability, 1 nM-10 uM) (fraction (0-1)); higher = more sensitive
Method in brief: as §1

BV-173 = system: BV-173
Method in brief: (§2)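 Each of fifteen myeloid leukaemia cell lines was seeded in RPMI 1640 at a density titrated to its linear growth range. The cells were incubated for 72 h at 37 °C and 5% CO2 with compounds at five tenfold doses from 1 to 10,000 nM, in duplicate. After ATP luminescence was normalised to vehicle and to a positive control at 10 µM, four-parameter log-logistic curves were fitted. These curves gave the IC50.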

HEL = system: HEL
Method in brief: as §2

HL-60 [3] = system: HL-60
Method in brief: as §2

K-562 = system: K-562
Method in brief: as §2

KCL-22 = system: KCL-22
Method in brief: as §2

KG-1 = system: KG-1
Method in brief: as §2

KU-812 = system: KU-812
Method in brief: as §2

LAMA-84 = system: LAMA-84
Method in brief: as §2

ML-2 = system: ML-2
Method in brief: as §2

MOLM-13 = system: MOLM-13
Method in brief: as §2

MV4-11 = system: MV4-11
Method in brief: as §2

Mono-Mac-6 = system: Mono-Mac-6
Method in brief: as §2

NOMO-1 = system: NOMO-1
Method in brief: as §2

SHI-1 = system: SHI-1
Method in brief: as §2

THP-1 = system: THP-1
Method in brief: as §2

[4] = 0.001 µM, co-treatment: AZD3965 100 nM
[5] = 0.001 µM, co-treatment: DMSO vehicle
[6] = 0.001 µM, co-treatment: GSK2194069 100 nM
[7] = 0.001 µM, co-treatment: pictilisib 100 nM
[8] = 0.01 µM, co-treatment: AZD3965 100 nM
[9] = 0.01 µM, co-treatment: DMSO vehicle
[10] = 0.01 µM, co-treatment: GSK2194069 100 nM
[11] = 0.01 µM, co-treatment: pictilisib 100 nM
[12] = 0.1 µM, co-treatment: AZD3965 100 nM
[13] = 0.1 µM, co-treatment: DMSO vehicle
[14] = 0.1 µM, co-treatment: GSK2194069 100 nM
[15] = 0.1 µM, co-treatment: pictilisib 100 nM
[16] = 1 µM, co-treatment: AZD3965 100 nM
[17] = 1 µM, co-treatment: DMSO vehicle
[18] = 1 µM, co-treatment: GSK2194069 100 nM
[19] = 1 µM, co-treatment: pictilisib 100 nM
[20] = 10 µM, co-treatment: AZD3965 100 nM
[21] = 10 µM, co-treatment: DMSO vehicle
[22] = 10 µM, co-treatment: GSK2194069 100 nM
[23] = 10 µM, co-treatment: pictilisib 100 nM
[24] = co-treatment: GSK2194069 100 nM
[25] = co-treatment: pictilisib 100 nM

| IC50 (cell viability) (HL-60 [3]) [µM] | IC50 (cell viability) (K-562) [µM] | IC50 (cell viability) (MOLM-13) [µM] | IC50 (cell viability) (MV4-11) [µM] | IC50 (cell viability) (THP-1) [µM] | SMILES | cell viability (HL-60 [1]; [4]) [%] | cell viability (HL-60 [1]; [5]) [%] | cell viability (HL-60 [1]; [6]) [%] | cell viability (HL-60 [1]; [7]) [%] | cell viability (HL-60 [1]; [8]) [%] | cell viability (HL-60 [1]; [9]) [%] | cell viability (HL-60 [1]; [10]) [%] | cell viability (HL-60 [1]; [11]) [%] | cell viability (HL-60 [1]; [12]) [%] | cell viability (HL-60 [1]; [13]) [%] | cell viability (HL-60 [1]; [14]) [%] | cell viability (HL-60 [1]; [15]) [%] | cell viability (HL-60 [1]; [16]) [%] | cell viability (HL-60 [1]; [17]) [%] | cell viability (HL-60 [1]; [18]) [%] | cell viability (HL-60 [1]; [19]) [%] | cell viability (HL-60 [1]; [20]) [%] | cell viability (HL-60 [1]; [21]) [%] | cell viability (HL-60 [1]; [22]) [%] | cell viability (HL-60 [1]; [23]) [%] | area under dose-response curve (HL-60 [2]; co-treatment: AZD3965 100 nM) | area under dose-response curve (HL-60 [2]; co-treatment: DMSO vehicle) | area under dose-response curve (HL-60 [2]; [24]) | area under dose-response curve (HL-60 [2]; [25]) | IC50 (cell viability) (BV-173) [µM] | IC50 (cell viability) (HEL) [µM] | IC50 (cell viability) (KCL-22) [µM] | IC50 (cell viability) (KG-1) [µM] | IC50 (cell viability) (KU-812) [µM] | IC50 (cell viability) (LAMA-84) [µM] | IC50 (cell viability) (ML-2) [µM] | IC50 (cell viability) (Mono-Mac-6) [µM] | IC50 (cell viability) (NOMO-1) [µM] | IC50 (cell viability) (SHI-1) [µM] |
| --- | --- | --- | --- | --- | --- | --- | --- | --- | --- | --- | --- | --- | --- | --- | --- | --- | --- | --- | --- | --- | --- | --- | --- | --- | --- | --- | --- | --- | --- | --- | --- | --- | --- | --- | --- | --- | --- | --- | --- |
| – | – | – | – | – | Cc1c2c(=O)n(-c3ccccc3Cl)[nH]c2cc(=O)n1Cc1ccccn1 | 103 ± 2.9 | 103 ± 1.8 | 101 ± 3.2 | 96.69 ± 0.41 | 103 ± 4.3 | 103 ± 1.3 | 105 ± 5 | 103 ± 18 | 96.9 ± 3.3 | 99.6 ± 8.5 | 98.8 ± 5.7 | 100 ± 1.9 | 98.6 ± 5.4 | 99.25 ± 0.98 | 101 ± 6.8 | 95.2 ± 3.8 | 96.6 ± 4 | 101 ± 8.3 | 96.5 ± 3.9 | 94.8 ± 2.1 | < 0.0301 | < 0.0301 | < 0.0301 | < 0.0301 | – | – | – | – | – | – | – | – | – | – |
| – | – | – | – | – | O=C(Nc1ccccc1)c1cc([N+](=O)[O-])ccc1Cl [GW-9662] | 104 ± 4.8 | 100.8 ± 0.15 | 99.4 ± 3.7 | 106.5 ± 0.24 | 97.15 ± 0.3 | 103.27 ± 0.069 | 92.6 ± 11 | 96.8 ± 5.1 | 102 ± 3.9 | 100 ± 2.6 | 98.7 ± 5.5 | 97.9 ± 2.5 | 100 ± 2.4 | 100.8 ± 0.79 | 96.1 ± 1.9 | 99.3 ± 5.7 | 90.1 ± 20 | 95.6 ± 2.1 | 87.2 ± 8.5 | 94.4 ± 16 | < 0.0301 | < 0.0301 | < 0.0301 | < 0.0301 | – | – | – | – | – | – | – | – | – | – |
| > 10 | > 10 | > 10 | > 10 | > 10 | CC(C(=O)O)c1cccc(C(=O)c2ccccc2)c1 (configuration not stated) [Ketoprofen] | – | – | – | – | – | – | – | – | – | – | – | – | – | – | – | – | – | – | – | – | – | – | – | – | > 10 | > 10 | > 10 | > 10 | > 10 | > 10 | > 10 | > 10 | > 10 | > 10 |
| > 10 | > 10 | > 10 | > 10 | > 10 | Clc1ccccc1CN1CCc2sccc2C1 [Ticlopidine] | – | – | – | – | – | – | – | – | – | – | – | – | – | – | – | – | – | – | – | – | – | – | – | – | > 10 | > 10 | > 10 | > 10 | > 10 | > 10 | > 10 | > 10 | > 10 | > 10 |
| – | – | – | – | – | CC(C(=O)O)C(=O)O [methylmalonate] | 100 ± 1.6 | 97.43 ± 0.96 | 101 ± 5.3 | 105 ± 14 | 96.1 ± 3 | 99.6 ± 0.36 | 97.9 ± 8.9 | 103 ± 6.5 | 81.8 ± 19 | 96.753 ± 0.087 | 95.2 ± 10 | 87.7 ± 20 | 107 ± 12 | 100.6 ± 0.51 | 106 ± 2.2 | 84.2 ± 32 | 98.6 ± 5.8 | 99 ± 3.8 | 103.3 ± 0.24 | 108.9 ± 0.38 | < 0.0301 | < 0.0301 | < 0.0301 | < 0.0301 | – | – | – | – | – | – | – | – | – | – |
